According to PubChem BioAssay (NCI):
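Assay format: 96-well plates, 48-hour exposure. GI50 is the concentration that inhibits growth by half. TGI marks complete inhibition of growth.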

Key:
Test in all cases: growth of human tumour cells (NCI), 48 h
A549 NSCLC = tested on: A549 NSCLC
BT-549 breast = tested on: BT-549 breast
CCRF-CEM leukemia = tested on: CCRF-CEM leukemia
COLO 205 colon = tested on: COLO 205 colon
KM12 colon = tested on: KM12 colon
MCF7 breast = tested on: MCF7 breast
MDA-MB-435 = tested on: MDA-MB-435
NCI-H522 lung = tested on: NCI-H522 lung
OVCAR-3 ovarian = tested on: OVCAR-3 ovarian
SK-MEL-2 melanoma = tested on: SK-MEL-2 melanoma

| Structure (SMILES) | GI50 (A549 NSCLC) [µM] | TGI (A549 NSCLC) [µM] | GI50 (BT-549 breast) [µM] | TGI (BT-549 breast) [µM] | GI50 (CCRF-CEM leukemia) [µM] | TGI (CCRF-CEM leukemia) [µM] | GI50 (COLO 205 colon) [µM] | TGI (COLO 205 colon) [µM] | GI50 (KM12 colon) [µM] | TGI (KM12 colon) [µM] | GI50 (MCF7 breast) [µM] | TGI (MCF7 breast) [µM] | GI50 (MDA-MB-435) [µM] | TGI (MDA-MB-435) [µM] | GI50 (NCI-H522 lung) [µM] | TGI (NCI-H522 lung) [µM] | GI50 (OVCAR-3 ovarian) [µM] | TGI (OVCAR-3 ovarian) [µM] | GI50 (SK-MEL-2 melanoma) [µM] | TGI (SK-MEL-2 melanoma) [µM] |
| --- | --- | --- | --- | --- | --- | --- | --- | --- | --- | --- | --- | --- | --- | --- | --- | --- | --- | --- | --- | --- |
| O=C(Nc1cccc(C(F)(F)F)c1)Oc1ccc(Cl)c2cccnc12 | 2.43 | 9.03 | 0.524 | 3.69 | 0.708 | 16.1 | 2.48 | 6.39 | 3.94 | 13.4 | 1.46 | 6.77 | 1.89 | 9.5 | 0.906 | 4.28 | 0.832 | 6.93 | 2.07 | 5.55 |
| NC(Cc1ccccc1)c1nccs1 (centres undefined) | – | > 100 | – | > 100 | – | > 100 | – | > 100 | – | > 100 | – | > 100 | – | > 100 | – | > 100 | – | > 100 | – | > 100 |
| O=c1[nH]c(=O)n(C2CC(O)C(CO)O2)cc1C(F)(F)F (centres undefined) | 3.35 | > 100 | 4.61 | > 100 | 0.557 | > 100 | 25 | > 100 | > 100 | > 100 | 0.038 | – | 5.31 | > 100 | 18.3 | > 100 | > 77.4 | > 100 | > 100 | > 100 |
| CC[C@H](C)[C@H](NC(=O)c1cccn1C)C(=O)N(C)[C@H](C[C@@H](OC(C)=O)c1nc(C(=O)N[C@@H](Cc2ccccc2)C[C@H](C)C(=O)OC)cs1)C(C)C | 0.661 | > 33.3 | 0.155 | 2.48 | 0.138 | > 33.3 | 0.15 | 0.576 | 0.106 | > 33.3 | 0.0807 | > 33.3 | 0.0348 | 0.168 | 0.0661 | 2.08 | 0.0809 | 0.272 | 0.347 | > 33.3 |
| CC(SCc1ccccc1)C(=O)O (centres undefined) | – | > 100 | – | > 100 | – | > 100 | – | > 100 | – | > 100 | – | > 100 | – | > 100 | – | > 100 | – | > 100 | – | > 100 |
| COc1ccc(S(=O)(=O)N(C(C)=O)c2ccccc2/C=C/c2cc[n+]([O-])cc2)cc1 | 0.636 | > 10 | 0.56 | > 10 | 0.762 | > 7.66 | 0.529 | 2.3 | 0.335 | > 10 | 0.428 | > 10 | 0.143 | 0.576 | 0.225 | 1.65 | 0.371 | 1.57 | 0.54 | > 10 |
| CNC(=O)c1cncc(/C=C/c2ccccc2Cl)c1 | > 25 | > 25 | > 25 | > 25 | > 25 | > 25 | > 25 | > 25 | > 25 | > 25 | > 25 | > 25 | > 25 | > 25 | > 25 | > 25 | > 25 | > 25 | > 25 | > 25 |
| C=C1C(=O)O[C@H]2C[C@@H]1C(=O)CC(C)CCCC(C)=CCC[C@@]2(C)O (some centres undefined) | – | > 25 | – | > 25 | – | > 25 | – | > 25 | – | > 25 | – | > 25 | – | > 25 | – | > 25 | – | > 25 | – | > 25 |
| COc1cc(NCCCCCN=C(N)NC(N)=NC(C)C)c2ncccc2c1 | 11.6 | 26.3 | 2.03 | 5.61 | 2.2 | 17.4 | 0.468 | 1.74 | 1.07 | 3.28 | 0.0313 | 0.16 | 3.61 | 14.7 | 1.18 | 4.58 | 0.217 | 0.759 | 1.95 | 5.36 |
| COc1ccc2nc3cc(Cl)ccc3c(Nc3cc(CN4CCCC4)c(O)c(CN4CCCC4)c3)c2n1 | 1.29 | 22 | 2.46 | 5.66 | 1.12 | 4.03 | 1.18 | 2.48 | 1.66 | 10.9 | 1 | 8.34 | 1.6 | 3.07 | 1.47 | 3.14 | 3.07 | 14.7 | 1.73 | 3.26 |
| COc1ccc(-c2cc(=O)c3c(O)c(OC)c(OC)c(OC)c3o2)cc1 | – | > 100 | – | > 100 | – | > 100 | – | > 100 | – | 44.4 | – | > 100 | – | > 100 | – | > 100 | – | > 100 | – | > 81.3 |
| COc1cc2nccc(Oc3ccc(NC(=O)c4cn(C(C)C)c(=O)n(-c5ccc(F)cc5)c4=O)cc3F)c2cc1OC | > 26 | > 100 | 3.29 | 11.3 | > 100 | > 100 | > 100 | > 100 | 0.0453 | > 100 | > 100 | > 100 | > 100 | > 100 | > 22.5 | > 100 | > 41.4 | > 100 | > 68.1 | > 100 |
| CC(C)c1ccc(NC(=O)Cc2ccc(Nc3ncnc4cc(-c5cnn(CCN(C)C)c5)ccc34)cc2)cc1 | 1.2 | 4.15 | 3.96 | > 10 | 0.0522 | 4.68 | 0.218 | 1.83 | 0.0641 | 1.39 | 1.06 | 3.04 | 2.34 | > 10 | 1.56 | 3.94 | 1.44 | 2.94 | > 10 | > 10 |
| O=C[C@@H](CO)O[C@H](C=O)n1cnc2c(=O)[nH]cnc21 | – | 2460 | – | 2370 | – | 559 | – | 992 | – | 1270 | – | 409 | – | 2300 | – | 866 | – | 1410 | – | 1400 |
